Blank lines part the entries; values can stand above or below the molecule they belong to. Activity calls are given as the source filed them. The rule behind the calls is not given here.
Tests used:
[1] = target: 5-hydroxytryptamine receptor 1A (Homo sapiens, UniProt P08908); assay: GPCRScan assay: inhibition of 5-HT1A; design: radioligand conc. used [nm] 0.5 – 1.0, parental cells stable CHO
[2] = target: T1, 5-hydroxytryptamine receptor 5A (Homo sapiens, UniProt P47898); assay: GPCRScan assay: inhibition of 5-HT5A; design: radioligand conc. used [nm] 2.0 - 3.3, parental cells Flp-In CHO
[3] = target: T2, Sodium-dependent noradrenaline transporter (Homo sapiens, UniProt P23975); assay: GPCRScan assay: inhibition of NET; design: radioligand conc. used [nm] 1.3 – 5.0, parental cells stable HEK
T2 sequence (P23975 whole entry): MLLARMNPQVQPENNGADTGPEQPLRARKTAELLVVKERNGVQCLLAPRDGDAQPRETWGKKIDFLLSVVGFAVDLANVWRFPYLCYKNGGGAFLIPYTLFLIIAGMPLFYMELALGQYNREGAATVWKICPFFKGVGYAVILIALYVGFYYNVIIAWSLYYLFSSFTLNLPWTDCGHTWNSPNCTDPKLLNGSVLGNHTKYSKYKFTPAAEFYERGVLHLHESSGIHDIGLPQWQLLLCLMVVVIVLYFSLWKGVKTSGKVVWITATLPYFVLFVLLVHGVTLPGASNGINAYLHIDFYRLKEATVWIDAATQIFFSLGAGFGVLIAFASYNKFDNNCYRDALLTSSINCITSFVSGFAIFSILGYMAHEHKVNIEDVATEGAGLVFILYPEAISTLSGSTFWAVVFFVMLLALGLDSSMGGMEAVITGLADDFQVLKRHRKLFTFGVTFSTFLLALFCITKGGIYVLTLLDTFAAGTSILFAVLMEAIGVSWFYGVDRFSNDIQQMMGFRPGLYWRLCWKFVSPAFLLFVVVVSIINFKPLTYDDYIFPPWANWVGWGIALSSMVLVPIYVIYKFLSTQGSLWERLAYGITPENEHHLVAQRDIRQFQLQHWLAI

[4] = target: T3, Sodium-dependent dopamine transporter (Homo sapiens, UniProt Q01959); assay: GPCRScan assay: inhibition of DAT; design: radioligand conc. used [nm] 3.6 – 16.0, parental cells stable HEK
[5] = target: T4, Delta-type opioid receptor (Homo sapiens, UniProt P41143); assay: GPCRScan assay: inhibition of DOR; design: radioligand conc. used [nm] 1.0 – 2.0, parental cells stable HEK
[6] = target: T5, Induced myeloid leukemia cell differentiation protein Mcl-1 (Homo sapiens, UniProt Q07820); assay: HTRF (MCL1)
[7] = target: T5, Induced myeloid leukemia cell differentiation protein Mcl-1; assay: Caspase Glo MOLP-8 assay; assay type: functional, cell-based, MOLP8
[8] = target: 5-hydroxytryptamine receptor 1A (Homo sapiens) (UniProt P08908); conditions: Compound concentration 10.0 uM
[9] = target: 5-hydroxytryptamine receptor 1B (Homo sapiens) (UniProt P28222); conditions: Compound concentration 10.0 uM
Chain of 5-hydroxytryptamine receptor 1B (Homo sapiens) (P28222 whole entry): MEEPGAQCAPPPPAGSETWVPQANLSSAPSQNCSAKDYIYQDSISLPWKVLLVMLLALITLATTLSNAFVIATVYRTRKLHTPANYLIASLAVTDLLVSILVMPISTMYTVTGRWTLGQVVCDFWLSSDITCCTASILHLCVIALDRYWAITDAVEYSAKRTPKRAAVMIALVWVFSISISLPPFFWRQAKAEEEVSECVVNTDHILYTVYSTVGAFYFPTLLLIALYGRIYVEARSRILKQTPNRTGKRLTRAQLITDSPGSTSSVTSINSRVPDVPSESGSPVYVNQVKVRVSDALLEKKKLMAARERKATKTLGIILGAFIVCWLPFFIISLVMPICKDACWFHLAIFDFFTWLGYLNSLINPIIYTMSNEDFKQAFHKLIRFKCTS

[10] = target: 5-hydroxytryptamine receptor 1D (Homo sapiens) (UniProt P28221); conditions: Compound concentration 10.0 uM
[11] = target: 5-hydroxytryptamine receptor 2A (Homo sapiens) (UniProt P28223); conditions: Compound concentration 10.0 uM
[12] = target: 5-hydroxytryptamine receptor 2B (Homo sapiens) (UniProt P41595); conditions: Compound concentration 10.0 uM
[13] = target: 5-hydroxytryptamine receptor 2C (Homo sapiens) (UniProt P28335); conditions: Compound concentration 10.0 uM
[14] = target: 5-hydroxytryptamine receptor 3A (Homo sapiens) (UniProt P46098); conditions: Compound concentration 10.0 uM
[15] = target: T1, 5-hydroxytryptamine receptor 5A; conditions: Compound concentration 10.0 uM
[16] = target: 5-hydroxytryptamine receptor 7 (Homo sapiens) (UniProt P34969); conditions: Compound concentration 10.0 uM
[17] = target: D(1A) dopamine receptor (Homo sapiens) (UniProt P21728); conditions: Compound concentration 10.0 uM
Chain of D(1A) dopamine receptor (Homo sapiens) (P21728 whole entry): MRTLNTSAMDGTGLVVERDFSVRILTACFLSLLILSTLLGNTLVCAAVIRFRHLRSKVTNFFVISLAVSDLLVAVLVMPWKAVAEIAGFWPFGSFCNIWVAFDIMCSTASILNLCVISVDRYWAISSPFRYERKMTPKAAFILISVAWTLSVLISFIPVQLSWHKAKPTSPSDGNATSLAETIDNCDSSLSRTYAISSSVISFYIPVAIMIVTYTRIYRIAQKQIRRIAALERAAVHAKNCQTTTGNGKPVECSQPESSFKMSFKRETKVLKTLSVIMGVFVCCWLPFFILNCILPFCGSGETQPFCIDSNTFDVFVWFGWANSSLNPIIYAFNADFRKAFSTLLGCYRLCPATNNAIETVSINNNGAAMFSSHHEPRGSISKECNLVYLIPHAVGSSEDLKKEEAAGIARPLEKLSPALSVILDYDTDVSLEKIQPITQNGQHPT

[18] = target: D(2) dopamine receptor (Homo sapiens) (UniProt P14416); conditions: Compound concentration 10.0 uM
[19] = target: D(3) dopamine receptor (Homo sapiens) (UniProt P35462); conditions: Compound concentration 10.0 uM
Chain of D(3) dopamine receptor (Homo sapiens) (P35462 whole entry): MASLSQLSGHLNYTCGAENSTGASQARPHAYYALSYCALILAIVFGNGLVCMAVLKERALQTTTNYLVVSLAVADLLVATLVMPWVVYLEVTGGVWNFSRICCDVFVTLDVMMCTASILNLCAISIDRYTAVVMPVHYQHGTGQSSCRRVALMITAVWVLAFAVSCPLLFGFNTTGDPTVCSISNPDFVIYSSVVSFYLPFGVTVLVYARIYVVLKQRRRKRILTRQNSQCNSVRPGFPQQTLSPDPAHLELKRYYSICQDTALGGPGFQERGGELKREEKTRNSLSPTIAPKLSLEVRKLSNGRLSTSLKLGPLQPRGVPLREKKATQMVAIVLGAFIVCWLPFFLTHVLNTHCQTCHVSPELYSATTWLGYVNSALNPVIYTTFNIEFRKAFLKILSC

[20] = target: D(4) dopamine receptor (Homo sapiens) (UniProt P21917); conditions: Compound concentration 10.0 uM
[21] = target: D(1B) dopamine receptor (Homo sapiens) (UniProt P21918); conditions: Compound concentration 10.0 uM
[22] = target: Sodium-dependent serotonin transporter (Homo sapiens) (UniProt P31645); conditions: Compound concentration 10.0 uM
[23] = target: T2, Sodium-dependent noradrenaline transporter; conditions: Compound concentration 10.0 uM
[24] = target: T3, Sodium-dependent dopamine transporter; conditions: Compound concentration 10.0 uM
Mu-type opioid receptor [25] = target: T6, Mu-type opioid receptor (Homo sapiens, UniProt P35372); conditions: Compound concentration 10.0 uM
[26] = target: T4, Delta-type opioid receptor; conditions: Compound concentration 10.0 uM
[27] = target: Kappa-type opioid receptor (Homo sapiens) (UniProt P41145); conditions: Compound concentration 10.0 uM
[28] = target: Histamine H1 receptor (Homo sapiens) (UniProt P35367); conditions: Compound concentration 10.0 uM
[29] = target: Histamine H2 receptor (Homo sapiens) (UniProt P25021); conditions: Compound concentration 10.0 uM
Chain of Histamine H2 receptor (Homo sapiens) (P25021 whole entry): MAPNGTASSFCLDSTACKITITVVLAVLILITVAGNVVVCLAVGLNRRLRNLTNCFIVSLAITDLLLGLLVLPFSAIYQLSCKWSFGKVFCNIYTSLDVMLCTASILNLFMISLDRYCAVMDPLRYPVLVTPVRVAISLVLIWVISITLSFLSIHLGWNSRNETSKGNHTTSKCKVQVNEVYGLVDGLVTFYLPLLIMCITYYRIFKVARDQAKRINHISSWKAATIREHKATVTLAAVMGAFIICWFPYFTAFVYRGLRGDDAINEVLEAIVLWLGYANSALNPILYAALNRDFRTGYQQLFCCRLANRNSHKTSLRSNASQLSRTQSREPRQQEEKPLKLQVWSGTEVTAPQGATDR

[30] = target: Histamine H3 receptor (Homo sapiens) (UniProt Q9Y5N1); conditions: Compound concentration 10.0 uM
[31] = target: Alpha-1A adrenergic receptor (Homo sapiens) (UniProt P35348); conditions: Compound concentration 10.0 uM
[32] = target: Alpha-1B adrenergic receptor (Homo sapiens) (UniProt P35368); conditions: Compound concentration 10.0 uM
Chain of Alpha-1B adrenergic receptor (Homo sapiens) (P35368 whole entry): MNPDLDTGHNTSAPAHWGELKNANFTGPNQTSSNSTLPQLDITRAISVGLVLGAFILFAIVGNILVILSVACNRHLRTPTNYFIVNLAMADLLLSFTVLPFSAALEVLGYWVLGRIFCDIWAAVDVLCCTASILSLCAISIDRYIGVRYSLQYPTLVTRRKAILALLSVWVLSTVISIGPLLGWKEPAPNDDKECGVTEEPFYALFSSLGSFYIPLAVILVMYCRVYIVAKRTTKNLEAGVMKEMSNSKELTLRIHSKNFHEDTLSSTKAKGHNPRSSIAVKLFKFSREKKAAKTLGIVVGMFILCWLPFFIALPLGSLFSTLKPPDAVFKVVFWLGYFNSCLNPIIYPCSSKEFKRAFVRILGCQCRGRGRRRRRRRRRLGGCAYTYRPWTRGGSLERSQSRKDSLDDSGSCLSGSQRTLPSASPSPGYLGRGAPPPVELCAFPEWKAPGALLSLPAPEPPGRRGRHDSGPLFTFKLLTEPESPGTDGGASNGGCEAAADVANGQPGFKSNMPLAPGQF

[33] = target: Alpha-2A adrenergic receptor (Homo sapiens) (UniProt P08913); conditions: Compound concentration 10.0 uM
[34] = target: Alpha-2B adrenergic receptor (Homo sapiens) (UniProt P18089); conditions: Compound concentration 10.0 uM
[35] = target: Alpha-2C adrenergic receptor (Homo sapiens) (UniProt P18825); conditions: Compound concentration 10.0 uM
Chain of Alpha-2C adrenergic receptor (Homo sapiens) (P18825 whole entry): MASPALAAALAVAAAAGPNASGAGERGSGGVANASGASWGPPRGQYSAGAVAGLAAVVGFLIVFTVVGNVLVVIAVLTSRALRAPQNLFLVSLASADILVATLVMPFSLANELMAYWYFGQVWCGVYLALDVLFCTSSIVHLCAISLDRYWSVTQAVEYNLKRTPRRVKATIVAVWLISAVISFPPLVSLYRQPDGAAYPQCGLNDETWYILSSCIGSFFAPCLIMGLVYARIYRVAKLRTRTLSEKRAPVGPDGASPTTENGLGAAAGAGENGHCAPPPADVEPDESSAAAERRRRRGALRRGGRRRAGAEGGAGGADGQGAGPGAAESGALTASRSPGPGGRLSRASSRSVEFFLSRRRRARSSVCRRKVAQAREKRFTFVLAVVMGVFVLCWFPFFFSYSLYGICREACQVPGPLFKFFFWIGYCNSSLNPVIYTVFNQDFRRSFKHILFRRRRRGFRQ

[36] = target: Beta-1 adrenergic receptor (Homo sapiens) (UniProt P08588); conditions: Compound concentration 10.0 uM
[37] = target: Beta-2 adrenergic receptor (Homo sapiens) (UniProt P07550); conditions: Compound concentration 10.0 uM
[38] = target: Muscarinic acetylcholine receptor M1 (Homo sapiens) (UniProt P11229); conditions: Compound concentration 10.0 uM
[39] = target: Muscarinic acetylcholine receptor M2 (Homo sapiens) (UniProt P08172); conditions: Compound concentration 10.0 uM
[40] = target: Muscarinic acetylcholine receptor M3 (Homo sapiens) (UniProt P20309); conditions: Compound concentration 10.0 uM
Chain of Muscarinic acetylcholine receptor M3 (Homo sapiens) (P20309 whole entry, looked up): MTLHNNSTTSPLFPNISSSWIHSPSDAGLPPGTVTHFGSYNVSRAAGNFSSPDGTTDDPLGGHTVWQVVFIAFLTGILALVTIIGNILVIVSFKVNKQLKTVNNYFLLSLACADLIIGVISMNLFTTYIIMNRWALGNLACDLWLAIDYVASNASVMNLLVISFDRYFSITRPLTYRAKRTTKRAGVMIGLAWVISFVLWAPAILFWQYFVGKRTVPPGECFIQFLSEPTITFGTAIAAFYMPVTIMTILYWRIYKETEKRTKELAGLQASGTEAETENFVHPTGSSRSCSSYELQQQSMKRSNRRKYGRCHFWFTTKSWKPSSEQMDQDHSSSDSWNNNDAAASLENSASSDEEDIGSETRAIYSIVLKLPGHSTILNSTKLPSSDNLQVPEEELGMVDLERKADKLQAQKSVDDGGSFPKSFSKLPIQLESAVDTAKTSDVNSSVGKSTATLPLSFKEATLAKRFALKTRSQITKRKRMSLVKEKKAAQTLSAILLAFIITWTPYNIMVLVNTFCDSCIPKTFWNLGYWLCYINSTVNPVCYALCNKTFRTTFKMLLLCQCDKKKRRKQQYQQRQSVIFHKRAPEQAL

[41] = target: Muscarinic acetylcholine receptor M4 (Homo sapiens) (UniProt P08173); conditions: Compound concentration 10.0 uM
[42] = target: Muscarinic acetylcholine receptor M5 (Homo sapiens) (UniProt P08912); conditions: Compound concentration 10.0 uM
[43] = target: Beta-3 adrenergic receptor (Homo sapiens) (UniProt P13945); conditions: Compound concentration 10.0 uM
Chain of Beta-3 adrenergic receptor (Homo sapiens) (P13945 whole entry, looked up): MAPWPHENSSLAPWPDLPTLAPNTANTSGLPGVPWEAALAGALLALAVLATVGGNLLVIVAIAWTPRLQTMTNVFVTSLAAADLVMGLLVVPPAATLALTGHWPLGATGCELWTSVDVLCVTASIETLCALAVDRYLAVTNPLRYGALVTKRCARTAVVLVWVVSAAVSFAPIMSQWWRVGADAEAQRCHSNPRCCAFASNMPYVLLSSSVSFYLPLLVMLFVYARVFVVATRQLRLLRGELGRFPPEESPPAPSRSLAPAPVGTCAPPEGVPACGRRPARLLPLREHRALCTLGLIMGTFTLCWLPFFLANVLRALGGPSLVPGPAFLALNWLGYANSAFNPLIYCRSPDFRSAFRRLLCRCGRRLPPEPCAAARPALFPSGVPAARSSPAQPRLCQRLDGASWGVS

Rattus norvegicus = organism: Rattus norvegicus; conditions: Compound concentration 10.0 uM
[44] = target: Alpha-1D adrenergic receptor (Homo sapiens) (UniProt P25100); conditions: Compound concentration 10.0 uM
Chain of Alpha-1D adrenergic receptor (Homo sapiens) (P25100 whole entry): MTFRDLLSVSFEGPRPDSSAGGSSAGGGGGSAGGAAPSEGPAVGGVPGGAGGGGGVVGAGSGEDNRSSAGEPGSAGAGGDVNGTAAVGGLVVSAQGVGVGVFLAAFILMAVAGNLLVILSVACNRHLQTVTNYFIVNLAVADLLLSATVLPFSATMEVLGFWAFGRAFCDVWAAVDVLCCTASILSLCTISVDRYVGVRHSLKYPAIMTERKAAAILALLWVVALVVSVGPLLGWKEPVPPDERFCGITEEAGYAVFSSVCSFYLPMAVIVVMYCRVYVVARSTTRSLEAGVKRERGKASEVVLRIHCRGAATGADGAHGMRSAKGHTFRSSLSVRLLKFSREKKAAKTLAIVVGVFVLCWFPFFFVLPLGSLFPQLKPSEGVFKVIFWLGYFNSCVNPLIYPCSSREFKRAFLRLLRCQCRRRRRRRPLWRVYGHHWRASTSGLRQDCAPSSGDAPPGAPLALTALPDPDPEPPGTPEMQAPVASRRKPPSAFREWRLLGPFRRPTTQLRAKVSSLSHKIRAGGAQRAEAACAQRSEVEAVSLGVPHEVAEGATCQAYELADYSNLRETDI

[45] = target: Sigma intracellular receptor 2 (Homo sapiens) (UniProt Q5BJF2); conditions: Compound concentration 10.0 uM
Chain of Sigma intracellular receptor 2 (Homo sapiens) (Q5BJF2 whole entry): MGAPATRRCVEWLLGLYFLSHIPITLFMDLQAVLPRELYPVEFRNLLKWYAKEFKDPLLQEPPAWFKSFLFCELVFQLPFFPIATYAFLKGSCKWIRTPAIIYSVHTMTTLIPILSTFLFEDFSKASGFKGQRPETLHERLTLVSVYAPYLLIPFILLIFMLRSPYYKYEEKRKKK

[46] = target: Sigma non-opioid intracellular receptor 1 (Homo sapiens) (UniProt Q99720); conditions: Compound concentration 10.0 uM
Mu-type opioid receptor [47] = target: T6, Mu-type opioid receptor; assay: GPCRScan assay: inhibition of MOR; design: radioligand conc. used [nm] 1.0 – 2.0, parental cells stable HEK
[48] = target: Apoptosis regulator Bcl-2 (Homo sapiens, UniProt P10415); assay: HTRF (BCL2); assay type: functional
Bcl-2-related protein A1 = Bcl-2-related protein A1 (Homo sapiens, UniProt Q16548); assay: HTRF (BCL2A1)
Bcl-2-like protein 1 = Bcl-2-like protein 1 (Homo sapiens, UniProt Q07817); assay: HTRF (BCL2L1)
EOL1 = assay: EOL-1 cell line Proliferation assay; assay type: functional, Homo sapiens
NOMO-1 = assay: NOMO-1 cell line Proliferation assay; assay type: functional, Homo sapiens
MOLM-13 = assay: MOLM-13 cell line Proliferation assay; assay type: functional, Homo sapiens
MV4-11 = assay: MV4-11 cell line Proliferation assay; assay type: functional, Homo sapiens
THP-1 = assay: THP-1 cell line Proliferation assay; assay type: functional, Homo sapiens
OCI-AML2 = assay: OCI-AML-2 cell line Proliferation assay; assay type: functional, Homo sapiens
SUD4 = assay: SU-DHL-4 cell line Proliferation assay; assay type: functional, Homo sapiens
Mino = assay: MINO cell line Proliferation assay; assay type: functional, Homo sapiens
MOLP-8 = assay: MOLP8 cell line Proliferation assay; assay type: functional, Homo sapiens
KMS-12-PE [49] = assay: (§1) KMS-12-PE cell line Proliferation assay; assay type: functional, Homo sapiens
KMS-12-PE [50] = assay: as §1; assay type: functional, Homo sapiens; remark: listed apart in the source
KMS-12-PE [51] = assay: KMS-12-PE MCL-1 KO cell line Proliferation assay; assay type: functional, Homo sapiens
KMS-12-PE [52] = assay: KMS-12-PE Bax/Bak dKO cell line Proliferation assay; assay type: functional, Homo sapiens

- Ki ([1]; read-out: Ki): 1700 nM
- Ki ([1]; read-out: pKi (converted)): 1580 nM
- Ki ([2]; read-out: Ki): 2470 nM
- Ki ([2]; read-out: pKi (converted)): 2450 nM
- Ki ([3]; read-out: Ki): 2880 nM
- Ki ([3]; read-out: pKi (converted)): 2750 nM
- Ki ([4]; read-out: Ki): 3720 nM
- Ki ([4]; read-out: pKi (converted)): 3550 nM
- Ki ([5]; read-out: Ki): 3230 nM
- Ki ([5]; read-out: pKi (converted)): 2630 nM
- Ki [6]: 115 nM (not active)
- AC50 [7]: > 30000 nM (not active)
- inhibition [8]: 76.5%
- inhibition [9]: 26%
- inhibition [10]: 31.4%
- inhibition [11]: 10.6%
- inhibition [12]: 6.21%
- inhibition [13]: 7.75%
- inhibition [14]: 8.89%
- inhibition [15]: 54.5%
- inhibition [16]: 19%
- inhibition [17]: 34.7%
- inhibition [18]: -6.49%
- inhibition [19]: 18.2%
- inhibition [20]: 3.35%
- inhibition [21]: 51.7%
- inhibition [22]: 11.4%
- inhibition [23]: 58.9%
- inhibition [24]: 57.7%
- inhibition (Mu-type opioid receptor [25]): 10.4%
- inhibition [26]: 78%
- inhibition [27]: 36.6%
- inhibition [28]: 10.8%
- inhibition [29]: 11.6%
- inhibition [30]: -6.18%
- inhibition [31]: -4.41%
- inhibition [32]: -0.92%
- inhibition [33]: 6.61%
- inhibition [34]: 29.5%
- inhibition [35]: 7%
- inhibition [36]: -3.32%
- inhibition [37]: -3.65%
- inhibition [38]: 1.89%
- inhibition [39]: 4.4%
- inhibition [40]: -1.43%
- inhibition [41]: -9.96%
- inhibition [42]: 2.15%
- inhibition [43]: 14.2%
- inhibition (Rattus norvegicus): 11.8%
- inhibition [44]: 1.09%
- inhibition [45]: 23.4%
- inhibition [46]: 30.7%
Compound: COCCOCCn1nc(C)c2c1CSCc1cc(n(C)n1)CCc1cc(c3ccc(F)cc3c1)OCCCn1c(C(=O)O)c(C)c3c-2c(Cl)ccc31

- Ki (Mu-type opioid receptor [47]): > 10000 nM
- pKi (Mu-type opioid receptor [47]): < 5
- Ki ([5]; read-out: Ki): 871 nM
- Ki ([5]; read-out: pKi (converted)): 724 nM
- Ki [6]: 0.015 nM (active)
- AC50 [7]: 12 nM (active)
- Ki [48]: > 3750 nM (not active)
- Ki (Bcl-2-related protein A1): > 5000 nM (not active)
- Ki (Bcl-2-like protein 1): > 5000 nM (not active)
- inhibition [8]: 47.8%
- inhibition [9]: 9.97%
- inhibition [10]: -6.42%
- inhibition [11]: -0.64%
- inhibition [12]: -1.5%
- inhibition [13]: 1.66%
- inhibition [14]: 6.57%
- inhibition [15]: 28.5%
- inhibition [16]: 20.1%
- inhibition [17]: 10.4%
- inhibition [18]: -6.66%
- inhibition [19]: 13.5%
- inhibition [20]: 2.7%
- inhibition [21]: 26.2%
- inhibition [22]: 11.2%
- inhibition [23]: 30.1%
- inhibition [24]: 49.5%
- inhibition [26]: 61.9%
- inhibition [27]: 0.68%
- inhibition [28]: -0.28%
- inhibition [29]: 13.1%
- inhibition [30]: 4.96%
- inhibition [32]: -1.94%
- inhibition [33]: 21.5%
- inhibition [34]: 6.6%
- inhibition [35]: 3.84%
- inhibition [37]: 4.71%
- inhibition [38]: 4.67%
- inhibition [39]: -0.94%
- inhibition [40]: -0.43%
- inhibition [42]: -9.51%
- inhibition [43]: 24.5%
- inhibition (Rattus norvegicus): 18.7%
- inhibition [44]: 2.28%
- inhibition [45]: 17.4%
- inhibition [46]: 20.6%
Compound: COCCOCCn1nc2c(c1C)-c1c(Cl)ccc3c1c(C)c(C(=O)O)n3CCCOc1cc(cc3c(F)c(Cl)ccc13)CCc1cc(nn1C)CSC2
- Cell Proliferation AC50 (EOL1): 2.1 nM
- Cell Proliferation AC50 (NOMO-1): 4.8 nM
- Cell Proliferation AC50 (MOLM-13): 10 nM
- Cell Proliferation AC50 (MV4-11): 14 nM
- Cell Proliferation AC50 (THP-1): 27 nM
- Cell Proliferation AC50 (OCI-AML2): 48 nM
- Cell Proliferation AC50 (SUD4): 21 nM
- Cell Proliferation AC50 (Mino): 73 nM
- Cell Proliferation AC50 (MOLP-8): 8.7 nM
- Cell Proliferation AC50 (KMS-12-PE [49]): 69 nM
- Cell Proliferation AC50 (KMS-12-PE [50]): 79 nM
- Cell Proliferation AC50 (KMS-12-PE [51]): >30000 nM
- Cell Proliferation AC50 (KMS-12-PE [52]): >30000 nM

From ChEMBL document CHEMBL5303767, “Data for DCP probe JNJ-4355” (2023)
